Like-named read-outs stand apart in the source and are kept apart here.
Key:
clinical = details: human, in vivo
[1] = system: patients with recurrent malignant glioma; details: single agent, cited from earlier work
GBM = details: second line treatment of patients with GBM; cited from earlier work

Row | Molecule | change of AUC between daily or twice daily dosing (clinical) | AUC (clinical; 100 mg) [ng·h/mL] | T1/2 (clinical; 100 mg) [h] | AUC (clinical; 100 mg, AUC) [ng·h/mL] | half-life (clinical; 100 mg, T1/2) [h] | predominant DLT ([1]; patients not taking EIAEDs) | predominant DLT ([1]; patients on EIAEDs) | AUC from 0–12 hours at MTD, those receiving EIAEDs compared with those not receiving EIAEDs [1] | 6-months progression free survival (PFS) (GBM)
1 | Cn1cncc1[C@@](N)(c1ccc(Cl)cc1)c1ccc2c(c1)c(-c1cccc(Cl)c1)cc(=O)n2C [tipifarnib, Tipifarnib] | do not seem to change significantly | 761.5 ± 468.8 | 3.35 ± 1.29 | 904 ± 377 | 6.57 ± 1.18 | myelosuppression | rash | approximately halved | 
2 | bevacizumab |  |  |  |  |  |  |  |  | 29–45%
